In one assay the test system is D2L-YFP. Nature of the assay: Agonist-induced receptor internalization assessed via confocal microscopy. The class given is cell-based. As to conditions: 15 min, room temperature, 50 nM MNPA or 10 μM dopamine.
The target in assay [1] is T1, D3 DAR (Rattus norvegicus, UniProt P19020). It is filed as cell-based.
For assay [2], the target named is T2, D2L DAR (Rattus norvegicus, UniProt P61169). The class given is cell-based. As to conditions: for % Maximum inhibition: 3 μM forskolin-stimulated cAMP accumulation, 10 min 37°C, HEK293T.
T2 sequence (P61169 whole entry): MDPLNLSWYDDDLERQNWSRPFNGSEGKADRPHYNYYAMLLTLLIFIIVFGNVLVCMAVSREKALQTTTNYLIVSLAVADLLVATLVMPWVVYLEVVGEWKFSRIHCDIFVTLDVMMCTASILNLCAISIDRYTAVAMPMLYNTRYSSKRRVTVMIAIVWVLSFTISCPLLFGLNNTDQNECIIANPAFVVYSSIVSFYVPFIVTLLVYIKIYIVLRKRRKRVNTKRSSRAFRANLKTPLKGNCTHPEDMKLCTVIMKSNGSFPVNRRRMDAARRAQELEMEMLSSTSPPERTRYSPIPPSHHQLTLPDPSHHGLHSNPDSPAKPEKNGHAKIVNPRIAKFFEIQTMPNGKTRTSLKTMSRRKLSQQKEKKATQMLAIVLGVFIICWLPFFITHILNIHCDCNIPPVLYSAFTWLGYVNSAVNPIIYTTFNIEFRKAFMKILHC
For assay [3], the target named is T1, D3 DAR. The class given is binding. As to conditions: read-out: KiL.
The target in assay [4] is T2, D2L DAR. It is filed as binding. As to conditions: intact cells; for hill coefficient: [3H]sulpiride competition.
Assay [5] addresses T2, D2L DAR. The class given is binding.
For assay [6], the target named is T2, D2L DAR. The class given is binding. As to conditions: for % decrease of Bmax: by Gpp(NH)p 100 μM.
Assay [7] has as its target T2, D2L DAR. It is filed as cell-based. As to conditions: 50 nM MNPA or 10 μM dopamine.

Each structure is given as a SMILES string. Where “and” joins values, the source holds several entries; their conditions need not be identical. Equal entries are not always repeated. Where two headings read alike, the source gives them in different places.

T1 sequence (P19020 whole entry): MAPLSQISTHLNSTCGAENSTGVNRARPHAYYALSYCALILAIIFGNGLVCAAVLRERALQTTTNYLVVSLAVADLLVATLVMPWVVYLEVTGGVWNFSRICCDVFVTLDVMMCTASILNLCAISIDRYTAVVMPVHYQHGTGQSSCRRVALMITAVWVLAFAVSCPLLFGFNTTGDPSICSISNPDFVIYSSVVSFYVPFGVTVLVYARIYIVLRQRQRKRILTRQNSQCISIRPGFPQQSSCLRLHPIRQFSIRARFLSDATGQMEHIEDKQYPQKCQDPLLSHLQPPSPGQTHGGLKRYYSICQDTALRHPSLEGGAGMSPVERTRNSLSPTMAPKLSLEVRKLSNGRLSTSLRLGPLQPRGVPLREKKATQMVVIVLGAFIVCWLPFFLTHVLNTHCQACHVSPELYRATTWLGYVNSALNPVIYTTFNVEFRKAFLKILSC

Take `NCCc1ccc(O)c(O)c1` [Dopamine, dopamine, reference compound]: in the assay with D2L-YFP, the “internalization of the D2-YFP receptor (confocal images)” value is “some of the D2-YFP fluorescence is apparent in punctuated, vesicle-like structures in the cytosol”.
For `CCCN1CCc2cc(OC)cc3c2[C@H]1Cc1ccc(O)c(O)c1-3` [MNPA, (R)-2-^11CH3O-N-n-propylnorapomorphine], the IC50 on D3 DAR [1] (3 μM forskolin, D3 DAR + AC-V, no antagonist) amounted to 3.43 nM; against D2L DAR [2] (inhibition of forskolin-stimulated cAMP accumulation, no antagonist) it was 0.33 ± 0.26 nM. The EC50 at D3 DAR [1] (read-out: EC50 value for inhibiting D3 DAR activity) came to 3.4 nM. For the same compound, the Ki on D3 DAR [3] (+ GTP 100 μM (dopamine: one-site fit)) came out at 1.09 ± 1.7 nM; on D3 DAR [3] (absence of GTP (dopamine: one-site fit)) it was 1.02 ± 0.2 nM; at D2L DAR [4] ([3H]sulpiride ~2 nM, 1 hour 37°C, single site), 109 ± 52 nM; on D2L DAR [5] (read-out: KiH, high affinity state, absence of GTP, [3H]methylspiperone ~0.2 nM) it was 0.09 ± 0.02 nM; on D2L DAR [5] (read-out: KiL, + GTP 100 μM, single site), 13.7 ± 3.3 nM; at D2L DAR [5] (read-out: KiL, low affinity state, absence of GTP) it was 16.9 ± 3.2 nM.
As for `CCCN1CCc2cc(O[11CH3])cc3c2[C@H]1Cc1ccc(O)c(O)c1-3` [MNPA, (R)-2-^11CH3O-N-n-propylnorapomorphine], the “fold higher EC50 at D3 DAR compared to D2 DAR” value at D3 DAR [1] was around 10 fold. Also, on D3 DAR [1] (10 μM (+)butaclamol), the “fold reduction in potency by (+)-butaclamol” value is given as 100 fold. For the same compound, the “agonist character at the D3 DAR” value at D3 DAR [1] (cAMP accumulation) is given as “full agonist”. Further, the “potency relative to dopamine at the D3 DAR” value on D3 DAR [1] (cAMP accumulation) was “slightly less potent than dopamine”. Further, the “inhibition of forskolin stimulated cAMP accumulation” value at D3 DAR [1] (maximal extent) is 42-43%. Besides, the “% Maximum inhibition” value on D2L DAR [2] worked out at 82 ± 3%. Besides, at D2L DAR [2] (cAMP accumulation), the “agonist character at the D2L DAR” value was “potent and full agonist”. Further, on D2L DAR [6] (Gpp(NH)p 100 μM), the “fold increase of Kd by Gpp(NH)p” value is reported as around 2 fold. The “% decrease of Bmax” value on D2L DAR [6] is 21 ± 9%; at D2L DAR [6] (listed as [^3H]MNPA) it was 17-21%; at D2L DAR [7] (Arrestin2 co-transfection), 53 ± 2%; on D2L DAR [7] (Arrestin3 co-transfection), 68 ± 8%; at D2L DAR [7] (pcDNA transfection), 23% and 23 ± 7%. In addition, the hill coefficient on D2L DAR [4] is listed as 1.7 ± 0.2. Also, the “internalization of the D2-YFP receptor (confocal images)” value in the assay with D2L-YFP is listed as “promotes internalization of the D2-YFP receptor”. The entries for the “Bmax of [3H]sulpiride after agonist pretreatment” value at D2L DAR [7] (Arrestin2 co-transfection), on D2L DAR [7] (Arrestin3 co-transfection) and on D2L DAR [7] (pcDNA transfection) were 3.00 ± 0.33 fmol/10^5cells, 2.75 ± 0.27 fmol/10^5cells and 7.25 ± 0.53 fmol/10^5cells, respectively. Besides, the “fold lower Ki values than dopamine” value on D2L DAR [5] is 200-1000 fold. For the same compound, the “% RH (percentage of receptors configured in the GTP sensitive high-affinity state)” value at D2L DAR [5] (absence of GTP) stood at 24 ± 1%.
Consider `CN1CN(c2ccccc2)C2(CCN(CCCC(=O)c3ccc(F)cc3)CC2)C1=O` [MSP, methylspiperone, reference compound], for which the “effect of Gpp(NH)p on binding” value on D2L DAR [6] (Gpp(NH)p 100 μM) is recorded as “no effect”.
In the case of `CCCN1CCc2cccc3c2[C@H]1Cc1ccc(O)c(O)c1-3` [NPA, N-n-propylnorapomorphine, reference compound], at D2L DAR [2], the “% Maximum inhibition” value is 72 ± 8%. Further, the “% decrease of Bmax” value at D2L DAR [6] is reported as 17 ± 5%; at D2L DAR [6] (listed as [^3H]NPA) it was 17-21%. The hill coefficient on D2L DAR [4] is given as 1.5 ± 0.2. The “% RH (percentage of receptors configured in the GTP sensitive high-affinity state)” value on D2L DAR [5] (absence of GTP) is 24 ± 1%.

As a reminder, the IC50 is the point on the concentration scale where inhibition reaches its midpoint. By EC50 is commonly meant the concentration that produces a half-maximal response.

(Values after paper PMC2746040 (Synapse (New York, N.Y.), 2009).)
